{"source": "paper PMC12652692", "about": "“Synthesis and In Vitro Anticancer Evaluation of Novel Phosphonium Derivatives of Chrysin” (International Journal of Molecular Sciences, 2025)", "assay_in_all_cases": "NCI60 one-dose screen", "type_in_all_cases": "cell-based", "key": {"A549/ATCC": {"system": "A549/ATCC", "settings": "Homo sapiens, read-out: Growth percent", "in_short": "(§1)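 SRB read-out (515 nm) after 48 h drug exposure at 37 °C, 5% CO2; single dose 10 µM. Value = growth relative to no-drug control and time-zero cell count; 100 = no inhibition, 0 = no net growth, negative = lethality.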"}, "COLO 205": {"system": "COLO 205", "settings": "Homo sapiens; COLO 205, 10 μM; read-out: Growth percent", "in_short": "as §1"}, "DU-145": {"system": "DU-145", "settings": "Homo sapiens; DU-145, 10 μM; read-out: Growth percent", "in_short": "as §1"}, "HCT-15": {"system": "HCT-15", "settings": "Homo sapiens; HCT-15, 10 μM; read-out: Growth percent", "in_short": "as §1"}, "HL-60(TB)": {"system": "HL-60(TB)", "settings": "Homo sapiens, read-out: Growth percent", "in_short": "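Tumour cell growth in RPMI 1640 plus 5% FBS was assessed after 48 h exposure to 10 µM compound, using SRB staining and A515. A value of 0 denotes no net growth and −20 denotes 20% lethality.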"}, "HT29": {"system": "HT29", "settings": "Homo sapiens, HT-29; HT29, 10 μM; read-out: Growth percent", "in_short": "as §1"}, "IGROV1": {"system": "IGROV1", "settings": "Homo sapiens, IGROV-1; IGROV1, 10 μM; read-out: Growth percent", "in_short": "as §1"}, "KM12": {"system": "KM12", "settings": "Homo sapiens; KM12, 10 μM; read-out: Growth percent", "in_short": "as §1"}, "LOX IMVI": {"system": "LOX IMVI", "settings": "Homo sapiens, read-out: Growth percent", "in_short": "as §1"}, "M14": {"system": "M14", "settings": "Homo sapiens; M14, 10 μM; read-out: Growth percent", "in_short": "as §1"}, "MCF7": {"system": "MCF7", "settings": "Homo sapiens; MCF7, 10 μM; read-out: Growth percent", "in_short": "as §1"}, "MDA-MB-435": {"system": "MDA-MB-435", "settings": "Homo sapiens; MDA-MB-435, 10 μM; read-out: Growth percent", "in_short": "as §1"}, "NCI-H522": {"system": "NCI-H522", "settings": "Homo sapiens; NCI-H522, 10 μM; read-out: Growth percent", "in_short": "as §1"}, "NCI/ADR-RES": {"system": "NCI/ADR-RES", "settings": "Homo sapiens, read-out: Growth percent", "in_short": "as §1"}, "OVCAR-3": {"system": "OVCAR-3", "settings": "Homo sapiens; OVCAR-3, 10 μM; read-out: Growth percent", "in_short": "as §1"}, "OVCAR-5": {"system": "OVCAR-5", "settings": "Homo sapiens; OVCAR-5, 10 μM; read-out: Growth percent", "in_short": "as §1"}, "SK-MEL-2": {"system": "SK-MEL-2", "settings": "Homo sapiens; SK-MEL-2, 10 μM; read-out: Growth percent", "in_short": "as §1"}, "SK-OV-3": {"system": "SK-OV-3", "settings": "Homo sapiens; SK-OV-3, 10 μM; read-out: Growth percent", "in_short": "as §1"}, "U251": {"system": "U251", "settings": "Homo sapiens, U-251; U251, 10 μM; read-out: Growth percent", "in_short": "as §1"}, "UACC-257": {"system": "UACC-257", "settings": "Homo sapiens; UACC-257, 10 μM; read-out: Growth percent", "in_short": "as §1"}}}
{"smiles": "O=c1cc(-c2ccccc2)oc2cc(O)cc(O)c12", "note": "[compound 2, 5,7-dihydroxyflavone, reference compound]", "values": [{"measurement": "activity at 10 µM", "setting": "A549/ATCC", "value": 98.5, "unit": "%"}, {"measurement": "activity at 10 µM", "setting": "COLO 205", "value": 105, "unit": "%"}, {"measurement": "activity at 10 µM", "setting": "DU-145", "value": 92, "unit": "%"}, {"measurement": "activity at 10 µM", "setting": "HCT-15", "value": 81, "unit": "%"}, {"measurement": "activity at 10 µM", "setting": "HL-60(TB)", "value": 116, "unit": "%"}, {"measurement": "activity at 10 µM", "setting": "HT29", "value": 103, "unit": "%"}, {"measurement": "activity at 10 µM", "setting": "IGROV1", "value": 95.2, "unit": "%"}, {"measurement": "activity at 10 µM", "setting": "KM12", "value": 92.9, "unit": "%"}, {"measurement": "activity at 10 µM", "setting": "LOX IMVI", "value": 85.1, "unit": "%"}, {"measurement": "activity at 10 µM", "setting": "M14", "value": 107, "unit": "%"}, {"measurement": "activity at 10 µM", "setting": "MCF7", "value": 103, "unit": "%"}, {"measurement": "activity at 10 µM", "setting": "MDA-MB-435", "value": 99.5, "unit": "%"}, {"measurement": "activity at 10 µM", "setting": "NCI-H522", "value": 89, "unit": "%"}, {"measurement": "activity at 10 µM", "setting": "NCI/ADR-RES", "value": 92.8, "unit": "%"}, {"measurement": "activity at 10 µM", "setting": "OVCAR-3", "value": 97.6, "unit": "%"}, {"measurement": "activity at 10 µM", "setting": "OVCAR-5", "value": 99.1, "unit": "%"}, {"measurement": "activity at 10 µM", "setting": "SK-MEL-2", "value": 110, "unit": "%"}, {"measurement": "activity at 10 µM", "setting": "SK-OV-3", "value": 128, "unit": "%"}, {"measurement": "activity at 10 µM", "setting": "U251", "value": 80.7, "unit": "%"}, {"measurement": "activity at 10 µM", "setting": "UACC-257", "value": 119, "unit": "%"}]}
